Source: patent US10392363B2, “Methods for treating protozoan infections” (Neoculi Pty Ltd., priority 2014, dated 2019)

Tested on: Trypanosoma cruzi (Tulahuen trypomastigotes expressing β-galactosidase, in L6 cells)
Experiment: In vitro T. cruzi assay for determination of IC50
Type: cell-based
Conditions: 96 h incubation
Description: The T. cruzi assay uses Tulahuen trypomastigotes expressing the β-galactosidase gene. The parasites were maintained in vitro by serial passage in L6 cells. […] Extracellular trypomastigotes were then removed and NCL compounds were added in seven-point serial dilutions performed in triplicate. Benznidazole (Epichem Pty Ltd.) was included as a control. […] After 4-6 h, a colour change following catabolisation of the reagent by viable T. cruzi was observed and absorbance was read at 530 nm using a Dynex microplate reader. […] For each compound, % inhibition values were used to generate a standard curve from which the IC50 was calculated. Each assay was performed at least twice, and the average was used.

N=C(NN=Cc1ccccc1Cl)NN=Cc1ccccc1Cl [NCL020] and N#Cc1ccccc1C=NNC(=N)NN=Cc1ccccc1C#N [NCL025] are within 1.5-fold of each other in IC50: 24 µM for the first, 20 µM for the second.

COc1ccc(C=NNC(=N)NN=Cc2ccc(OC)cc2)cc1 [NCL027] and Cc1ccc(C=NNC(=N)NN=Cc2ccc(Cl)cc2)cc1 [NCL076] are within 1.5-fold of each other in IC50: 14 µM for the first, 19 µM for the second.

First: N#Cc1ccccc1C=NNC(=N)N [NCL032]
Second: N#Cc1ccccc1C=NNC(=N)NN=Cc1ccc(Cl)cc1 [NCL085]
The IC50 of the first is 2.9-fold higher: 58 µM for the first, 20 µM for the second. The second is the more potent here.

Going from N=C(NN=Cc1ccccc1C(F)(F)F)NN=Cc1ccccc1C(F)(F)F [NCL036] to N=C(NN=Cc1cccc(C(F)(F)F)c1)NN=Cc1cccc(C(F)(F)F)c1 [NCL037], the IC50 rises from 8.3 µM to 16 µM (1.9-fold).

CC(=NNC(=N)NN=Cc1ccc(C(F)(F)F)cc1)c1ccc(C(F)(F)F)cc1 [NCL075] and N#Cc1ccc(C=NNC(=N)NN=Cc2ccc(Cl)cc2)cc1 [NCL087] are within 1.5-fold of each other in IC50: 15 µM for the first, 17 µM for the second.

For N=C(NN=Cc1ccc(Cl)cc1)NN=Cc1cccc(Cl)c1 [NCL083], the IC50 was 16 µM.

Same assay, conditions: Trypanosoma cruzi, TULAHUEN, L6; 96 h incubation

O=C(N/N=C/c1cccc(C(F)(F)F)c1)N/N=C/c1cccc(C(F)(F)F)c1 [NCL011] and N=C(N/N=C/c1ccc(C(F)(F)F)cc1)N/N=C/c1ccc(C(F)(F)F)cc1 [NCL035] cannot be ordered by IC50: greater than 11 µM for the first, 20 µM for the second.

N=C(N/N=C/c1ccc(F)cc1)N/N=C/c1ccc(F)cc1 [NCL021] and N=C(N/N=C/c1ccc(F)cc1)N/N=C/c1ccc(Cl)cc1 [NCL079] cannot be ordered by IC50: 16 µM for the first, greater than 10 µM for the second.

N=C(N/N=C/c1cccc(F)c1)N/N=C/c1cccc(F)c1 [NCL023] and Cc1cccc(/C=N/NC(=N)N/N=C/c2cccc(C)c2)c1 [NCL040] are within 1.5-fold of each other in IC50: 19 µM for the first, 16 µM for the second.

COc1cccc(/C=N/NC(=N)N/N=C/c2cccc(OC)c2)c1 [NCL029] and N=C(N/N=C/c1cccc(Cl)c1)N/N=C/c1cccc(Cl)c1 [NCL054] are the same in IC50: 19 µM for the first, 19 µM for the second.

First: N=C(N)N/N=C/c1ccc(Cl)cc1 [NCL030]
Second: N=C(NN)N/N=C/c1ccc(Cl)cc1 [NCL072]
The IC50 of the first is 2.6-fold lower: 18 µM for the first, 46 µM for the second.

Cc1ccc(/C=N/NC(=N)N/N=C/c2ccc(C)cc2)cc1 [NCL038] and N#Cc1cccc(/C=N/NC(=N)N/N=C/c2ccc(Cl)cc2)c1 [NCL086] are within 1.5-fold of each other in IC50: 16 µM for the first, 14 µM for the second.

Going from Cc1ccccc1/C=N/NC(=N)N/N=C/c1ccccc1C [NCL039] to N=C(N/N=C/c1ccc(Cl)cc1)N/N=C/c1ccccc1Cl [NCL082], the IC50 rises from 9.9 µM to 22 µM (2.2-fold). The first is the more potent here.

N=C(N)N/N=C/c1cccc(C(F)(F)F)c1 [NCL043] and N=C(N)N/N=C/c1cccc(Cl)c1 [NCL052] are within 1.5-fold of each other in IC50: 16 µM for the first, 15 µM for the second.

Going from Cc1ccc(/C=N/NC(=N)N)cc1 [NCL044] to C/C(=N\NC(=N)N/N=C/c1ccc(Cl)cc1)c1ccc(Cl)cc1 [NCL081], the IC50 falls from 39 µM to 20 µM (1.9-fold). The second is the more potent here.

First: C/C(=N\NC(=N)NN)c1ccc(C(F)(F)F)cc1 [NCL073]
Second: C/C(=N\NC(=N)N/N=C/c1ccc(Cl)cc1)c1ccc(C(F)(F)F)cc1 [NCL080]
The IC50 of the first is 3.1-fold higher: 24 µM for the first, 7.8 µM for the second.

Going from N=C(N/N=C/c1ccc(Cl)cc1)N/N=C/c1ccc(Cl)cc1Cl [NCL074] to N=C(N/N=C/c1ccc(Cl)cc1)N/N=C/c1ccc(Cl)cc1F [NCL084], the IC50 falls from 33 µM to 22 µM (1.5-fold). The second is the more potent here.

N=C(N/N=C/c1ccc(Cl)cc1)N/N=C/c1ccc(C(F)(F)F)cc1F [NCL078] and N=C(N/N=C/c1ccc(Cl)cc1)N/N=C/c1ccccc1F [NCL088] cannot be ordered by IC50: greater than 10 µM for the first, 19 µM for the second.

Molecule C/C(=N\NC(=N)N/N=C(\C)c1ccc(C(C)(F)F)cc1)c1ccc(Cl)cc1 [NCL089] has an IC50 of 3 µM.
